Laboratory results published in patent publication US20260235604A1, “A NOVEL MARKER FOR CARDIOMYOCYTES DEDIFFERENTIATION” (National University of Singapore, priority 2023, published 2026).

What was measured:
Assay type in all cases: cell-based, mouse
mTORC1 = assay: Western blot of GLUL, p-S6K1, p-4EBP1 in cultured ACMs with Asns KD; conditions: Asn treatment of D4 Asns^KD ACMs
Description: Protein extraction was carried out using 6 M urea lysis buffer with 1 mM dithiothreitol, protease inhibitor and phosphatase inhibitor. For protein extraction from cultured ACMs and purified CMs, lysis buffer was added directly to the cells, followed by vigorous pipetting. For protein extraction from mouse heart apex, a piece of apex tissue resected from each mouse heart was weighted and submerged in 500 μL lysis buffer in a 2 mL Sarstedt tube. One single stainless-steel bead (diameter 5 mm) was added to each tube containing apex tissue in lysis buffer. The TissueLyser II was assembled as per manufacturer's guidelines with pre-chilled adapters. The apex tissue was homogenised for 20 s at 30 Hz for two rounds, until no visible tissue debris was observed. Protein quantification was done using Bio-Rad Protein Assay Kit I as per manufacturer's guidelines.
The protein lysate with loading buffer was heated at 60° C. for 10 mins before loading onto a 10% SDS-polyacrylamide gel. After transfer, the blotting membrane was blocked in 5% blotting-grade blocker in TBST for 1 hour, followed by primary antibody incubation at 4° C. overnight and secondary antibody incubation at room temperature (R.T.) for 1 hour. The blot was detected by ECL substrate reaction and exposure on a ChemiDoc™ touch imaging system (BioRad). The quantification of protein expression level was performed using Fiji software. […]

cultured ACMs [1] = assay: Propidium iodide (PI) staining of cultured ACMs (CM death); conditions: eliminating Asn in cultured ACMs
Description: Purified CMs were either directly lysed for RNA and protein extraction, or pre-plated on uncoated cell culture dishes for 1 hour to further remove non-CMs before culture on laminin-coated cell culture plates. During the first two days of culturing (D0 and D1), 1 µM of blebbistatin (Sigma-Aldrich) was added as a specific myosin II inhibitor (see Kabaeva Z et al., 2008). Starting from D2, blebbistatin was removed to accelerate morphological changes of CMs. 10% FBS was included in the culture media during the whole culture procedure, and the small colonies of non-CMs were carefully scraped under a microscope and washed away daily. Images of CMs were captured using the EVOS® FL Cell Imaging System (Thermo Fisher) under different channels. PI (final concentration 1 μg/mL) and Hoechst (final concentration 1 μg/mL) was added at a to cultured ACMs, and incubated at 37° C. for 45 mins. The ACMs were immediately imaged by Nikon inverted microscope Eclipse Ti-E. For each well in the cell cultured dishes, 8 to 9 random regions were imaged. PI+ CMs were quantified using Fiji software.

cultured ACMs [2] = assay: RT-qPCR of cell cycle genes in cultured ACMs
Description: For freshly isolated mouse CMs, a total number of about 120,000 CMs (⅛ of total CMs) per heart were lysed by 1 mL TRIzol™ Reagent. To lyse cultured CMs, 1 mL TRIzol™ Reagent was added to each well in 12-well and 6-well cell culture plates. Total RNA extraction was performed as per manufacturer's protocol.
cDNA was synthesised with oligo dT and random primers using the qScript™ cDNA Synthesis Kit. qPCR was performed with PerfeCTa® Low Rox™ ToughMix™ (Quantabio) on a real-time PCR system. All qPCR data were normalised to the expression of housekeeping genes Gapdh and Rplp0.

## NC(=O)C[C@H](N)C(=O)O [Asn, asparagine]
mTORC1
  p-4EBP1: restored
  p-S6K1: promoted

B1: L-asparaginase (protein, UniProt P00805 23-348, looked up)
L-asparaginase 2: LPNITILATGGTIAGGGDSATKSNYTVGKVGVENLVNAVPQLKDIANVKGEQVVNIGSQDMNDNVWLTLAKKINTDCDKTDGFVITHGTDTMEETAYFLDLTVKCDKPVVMVGAMRPSTSMSADGPFNLYNAVVTAADKASANRGVLVVMNDTVLDGRDVTKTNTTDVATFKSVNYGPLGYIHNGKIDYQRTPARKHTSDTPFDVSKLNELPKVGIVYNYANASDLPAKALVDAGYDGIVSAGVGNGNLYKSVFDTLATAAKTGTAVVRSSRVPTGATTQDAEVDDAKYGFVASGTLNPQKARVLLQLALTQTKDPQQIQQIFNQY
Cultured ACMs [1]
  cell death: did not induce more cell death
Cultured ACMs [2]
  expression of cell cycle genes (Cdk1, Mki67, Aukrb): diminished
